Experimental data: PMC8637573, “EWS–FLI1‐targeting peptide identifies Ewing sarcoma tumor boundaries and lymph node metastasis via near‐infrared imaging” (Molecular Oncology, 2021)
pIC50: −log10 of the molar value. Residues, ends and D or L forms follow the SMILES beside them.

Experiments:
E/F in A673 cells = molecular target: T1, E/F in A673 cells (Homo sapiens, UniProt Q01543+Q01844); assay: Binding affinity test (competition of E9R with CS2‐N‐E9R); details: E9R 4 × 10^−3 M to 4 × 10^−9 M incubated 1 h, washed, then 4 μM CS2‐N‐E9R 40 min, Odyssey Infrared Imager, average of quadruple wells, read-out: IC50 for the inhibition of CS2‐N‐E9R binding E/F
T1 construct: endogenous in cells; host or cells: A673 cells (fixed and permeabilised in A8, living in A10)
T1 sequence (Q01844+Q01543 with tags, fused parts or gaps): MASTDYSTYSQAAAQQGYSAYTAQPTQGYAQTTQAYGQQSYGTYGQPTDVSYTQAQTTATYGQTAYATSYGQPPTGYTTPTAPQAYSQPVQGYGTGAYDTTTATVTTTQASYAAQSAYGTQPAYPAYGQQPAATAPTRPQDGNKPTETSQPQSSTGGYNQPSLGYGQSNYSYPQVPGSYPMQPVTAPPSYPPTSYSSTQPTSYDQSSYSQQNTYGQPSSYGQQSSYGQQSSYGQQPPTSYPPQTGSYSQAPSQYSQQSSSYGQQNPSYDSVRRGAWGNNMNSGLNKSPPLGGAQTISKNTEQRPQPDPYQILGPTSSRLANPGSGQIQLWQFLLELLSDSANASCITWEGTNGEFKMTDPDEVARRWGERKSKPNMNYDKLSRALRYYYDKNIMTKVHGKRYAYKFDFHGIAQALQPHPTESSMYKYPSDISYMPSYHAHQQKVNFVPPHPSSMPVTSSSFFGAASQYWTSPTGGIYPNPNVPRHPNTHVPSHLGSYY
Procedure: As to the binding affinity test, serial concentrations of E9R (from 4 × 10^−3 M to 4 × 10^−9 M) were prepared as competitors for CS2‐N‐E9R. A673 cells were seeded into 96‐well Black Polystyrene Assay plate at a concentration of 4 × 10^3 cells per well with 150 μL medium containing 10% FBS at incubator for 24 h. Different concentrations of E9R were added into palate and incubated for 1 h, and then washed three times with PBS (pH 7.4). 4 μM of CS2‐N‐E9R was then added into each well and incubated for another 40 min. After that the samples were washed and imaged with Odyssey® Infrared Imager. Each data point represents the average value of quadruple wells. Data were analyzed using GRAPHPAD PRISM (GraphPad Software, San Diego, CA, USA). IC50 values, which were defined as the concentration of competitive agent required to inhibit 50% of CS2‐N‐E9R binding, were calculated.

A673 cells = assay: Living cell fluorescence imaging; assay type: cell-based, human; details: A673 cells pre‐incubated with 50 μM E9R for 1 h, then 10 μM CS2‐N‐E9R
Procedure: E/F‐positive ES cells (A673) and E/F‐negative sarcoma cells (143B) were then seeded into confocal culture dishes at a density of 2 × 10^5 cells each dish in 1.5‐mL medium containing 10% FBS. After 24 h of cell attachment, the dishes were then washed three times with 1 mL PBS. The dishes were then cultured in medium with 10 μM probe CS2‐N‐E9R. The intracellular probe aggregations were then observed by Leica‐LCS‐SP8‐STED confocal microscope (Leica, Wetzlar, Germany).
E/F‐positive ES cells (A673 cells, RD‐ES cells) and E/F‐negative osteosarcoma cells (143B cells), hepatoma carcinoma cells (Hep3B cells), and […] embryonic human kidney cells (293T cells) were seeded into confocal culture dishes. All the dishes were incubated with 10 μM CS2‐N‐E9R for 1 h and washed three times with PBS buffer before imaging, except for the control and blocking groups. For the control group, A673 cells were incubated with 10 μM control probe CS2‐N‐E. For the blocking group, A673 cells were pre‐incubated with 50 μM peptide E9R as a blocking agent for 1 h, after that incubated with 10 μM probe CS2‐N‐E9R.

pIC50 (E/F in A673 cells): 5.43
SMILES: CC[C@H](C)[C@H](NC(=O)[C@@H](NC(=O)[C@H](C)NC(=O)[C@H](CC(=O)O)NC(=O)[C@H](CC(C)C)NC(=O)[C@@H]1CCCN1C(=O)[C@@H]1CCCN1C(=O)[C@@H]1CCCN1)C(C)C)C(=O)N[C@@H](CCC(=O)O)C(=O)N[C@@H](C)C(=O)O [E9R] (H-PPPLDAVIEA-OH; N-terminus assumed)
fluorescence of CS2‐N‐E9R after pretreatment with blocking agent (A673 cells): fluorescence muted
